Structures can show the parent of a compound that is named as a salt.
Each molecule was assayed against T1, guinea-pig B2 receptor (Cavia porcellus, UniProt O70526) (assay: [3H]-bradykinin binding to guinea-pig ileum membranes). Conditions: test compound at 10^-6 M, [3H]-bradykinin 120 pM, 90 min at 20° C., read-out: ACTIVITY % (percentage inhibition of the binding of [3H]-bradykinin).
T1 construct: Ileum segments are isolated from male guinea-pigs of the Dunkin-Hartley strain; tissue Iffa Credo, l'Arbresle, France (supplier of the animals); host or cells: ileum membranes of male Dunkin-Hartley guinea pigs
T1 sequence (O70526 1-372): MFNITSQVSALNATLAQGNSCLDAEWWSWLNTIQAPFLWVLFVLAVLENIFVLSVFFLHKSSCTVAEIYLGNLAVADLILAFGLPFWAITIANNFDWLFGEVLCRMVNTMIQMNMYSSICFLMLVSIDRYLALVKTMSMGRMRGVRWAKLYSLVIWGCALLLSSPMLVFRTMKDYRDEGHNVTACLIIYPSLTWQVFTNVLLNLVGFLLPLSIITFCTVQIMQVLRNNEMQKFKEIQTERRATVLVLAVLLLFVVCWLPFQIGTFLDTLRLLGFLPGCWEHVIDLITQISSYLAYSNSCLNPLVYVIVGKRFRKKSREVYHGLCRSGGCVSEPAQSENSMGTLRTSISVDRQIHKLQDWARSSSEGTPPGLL
Method: The following pharmacological test is used: Ileum segments are isolated from male guinea-pigs of the Dunkin-Hartley strain (Iffa Credo, l'Arbresle, France) and ground in the following TES buffer: TES 25 mM, 1,10-phenanthroline 1 mM (pH 6.8), bacitracin 140 μg/ml, BSA 1 g/l. The membranes are then isolated by centrifugation (18,000 rpm; 20 min; 4° C.). The binding studies are carried out in the TES buffer using [^3 H]-bradykinin (120 pM) and 50 μg of membrane protein per test (final volume 500 μl) with an equilibrium time of 90 min at 20° C. […] The results obtained from these tests (shown as "activity") are collated in Table I below with reference to the Examples given in the description.

| Structure (SMILES) | inhibition at 1 µM |
| --- | --- |
| Cc1ccc2cccc(OCc3c(Cl)ccc(S(=O)(=O)N4CCC[C@H]4C(=O)N4CCNCC4)c3Cl)c2n1 [Example 2, 1-[[3-[(2-Methylquinolin-8-yl)oxymethyl]-2,4-dichlorophenyl]sulfonyl]-2-(S)-[(piperazin-1-yl)carbonyl]pyrrolidine] | 100% |
| Cc1ccc2cccc(OCc3c(Cl)ccc(S(=O)(=O)N4CCC[C@H]4C(=O)NCCN)c3Cl)c2n1 [Example 3, 1-[[3-[(2-Methylquinolin-8-yl)oxymethyl]-2,4-dichlorophenyl]sulfonyl]-N-(2-aminoethyl)-2-(S)-pyrrolidinecarboxamide] | 100% |
| Cc1cc(C)c2cccc(OCc3c(Cl)ccc(S(=O)(=O)N4CCC[C@H]4C(=O)N4CCNCC4)c3Cl)c2n1 [Example 5, 1-[[3-[(2,4-Dimethylquinolin-8-yl)oxymethyl]-2,4-dichlorophenyl]sulfonyl]-2-(S)-[(piperazin-1-yl)carbonyl]pyrrolidine bistrifluoroacetate] | 100% |
| Cc1ccc2cccc(OCc3c(Cl)ccc(S(=O)(=O)N4CCC[C@H]4C(=O)NC4CCNCC4)c3Cl)c2n1 [Example 8, 1-[[3-[(2-Methylquinolin-8-yl)oxymethyl]-2,4-dichlorophenyl]sulfonyl]-N-(piperidin-4-yl)-2-(S)-pyrrolidinecarboxamide dihydrochloride] | 100% |
| Cc1ccc2cccc(OCc3c(Cl)ccc(S(=O)(=O)N4CCC[C@H]4C(=O)NCCCN)c3Cl)c2n1 [Example 9, 1-[[3-[(2-Methylquinolin-8-yl)oxymethyl]-2,4-dichlorophenyl]sulfonyl]-N-(3-aminopropyl)-2-(S)-pyrrolidinecarboxamide dihydrochloride] | 100% |
| Cc1ccc2cccc(OCc3c(Cl)ccc(S(=O)(=O)N4CCC[C@H]4C(=O)NCC4CCNCC4)c3Cl)c2n1 [Example 10, 1-[[3-[(2-Methylquinolin-8-yl)oxymethyl]-2,4-dichlorophenyl]sulfonyl]-N-[(piperidin-4-yl)methyl]-2-(S)-pyrrolidinecarboxamide dihydrochloride] | 100% |
| Cc1cc(C)c2cccc(OCc3c(Cl)ccc(S(=O)(=O)N4CCC[C@H]4C(=O)N4CCN(C(=N)N)CC4)c3Cl)c2n1 [Example 14, 1-[[3-[(2,4-Dimethylquinolin-8-yl)oxymethyl]-2,4-dichlorophenyl]sulfonyl]-2-(S)-[[4-(aminoiminomethyl)piperazin-1-yl]carbonyl]pyrrolidine bistrifluoroacetate] | 98% |
| Cc1cc(C)c2cccc(OCc3c(Cl)ccc(S(=O)(=O)N4C[C@H](O)C[C@H]4C(=O)N4CCN(C(=N)N)CC4)c3Cl)c2n1 [Example 15, 1-[[3-[(2,4-Dimethylquinolin-8-yl)oxymethyl]-2,4-dichlorophenyl]sulfonyl]-2-(S)-[[4-(aminoiminomethyl)piperazin-1-yl]carbonyl]-4-(R)-hydroxypyrrolidine bistrifluoroacetate] | 100% |

The remaining lines, values ahead:

| inhibition at 1 µM | Structure (SMILES) |
| --- | --- |
| 100% | Cc1ccc2cccc(OCc3c(Cl)ccc(S(=O)(=O)N4CCC[C@H]4C(=O)NCCNC(=N)N)c3Cl)c2n1 [Example 16, 1-[[3-[(2-Methylquinolin-8-yl)oxymethyl]-2,4-dichlorophenyl]sulfonyl]-N-[2-[(aminoiminomethyl)amino]ethyl]-2-(S)-pyrrolidinecarboxamide bistrifluoroacetate] |
| 97% | Cc1cc(C)c2cccc(OCc3c(Cl)ccc(S(=O)(=O)N4CCC[C@H]4C(=O)NCCNC(=N)N)c3Cl)c2n1 [Example 19, 1-[[3-[(2,4-Dimethylquinolin-8yl)oxymethyl]-2,4-dichlorophenyl]sulfonyl]-N-[2-[(aminoiminomethyl)amino]ethyl]-2-(S)-pyrrolidinecarboxamide dihydrochloride] |
| 98% | Cc1cc(C)c2cccc(OCc3c(Cl)ccc(S(=O)(=O)N4CCC[C@H]4C(=O)NCCCNC(=N)N)c3Cl)c2n1 [Example 20, 1-[[3-[(2,4-Dimethylquinolin-8-yl)oxymethyl]-2,4-dichlorophenyl]sulfonyl]-N-[3-[(aminoiminomethyl)amino]propyl]-2-(S)-pyrrolidinecarboxamide dihydrochloride] |
| 98% | Cc1ccc2cccc(OCc3c(Cl)ccc(S(=O)(=O)N4CCC[C@H]4C(=O)NCC4CCN(C(=N)N)CC4)c3Cl)c2n1 [Example 22, 1-[[3-[(2-Methylquinolin-8-yl)oxymethyl]-2,4-dichlorophenyl]sulfonyl]-N-[[1-(aminoiminomethyl)piperidin-4-yl]methyl]-2-(S)-pyrrolidinecarboxamide dihydrochloride] |
| 100% | Cc1ccc2cccc(OCc3c(Cl)ccc(S(=O)(=O)N4CCC[C@H]4C(=O)NC4CCN(C(=N)N)CC4)c3Cl)c2n1 [Example 23, 1-[[3-[(2-Methylquinolin-8-yl)oxymethyl]-2,4-dichlorophenyl]sulfonyl]-N-[1-(aminoiminomethyl)piperidin-4-yl]-2-(S)-pyrrolidinecarboxamide dihydrochloride] |
| 98% | Cc1ccc2cccc(OCc3c(Cl)ccc(S(=O)(=O)N4CCC[C@H]4C(=O)N4CCN(C(=N)N)CC4)c3Cl)c2n1 [Example 24, 1-[[3-[(2-Methylquinolin-8-yl)oxymethyl]-2,4-dichlorophenyl]sulfonyl]-2-(S)-[[4-(aminoiminomethyl)piperazin-1-yl]carbonyl]pyrrolidine dihydrochloride] |
| 100% | Cc1ccc2cccc(OCc3c(Cl)ccc(S(=O)(=O)N4CCC[C@H]4C(=O)N4CC(C)N(C(=N)N)C(C)C4)c3Cl)c2n1 (stereo partly drawn) [Example 25, 1-[[3-[(2-Methylquinolin-8yl)oxymethyl]-2,4-dichlorophenyl]sulfonyl]-2-(S)-[[4-(aminoiminomethyl)-3,5-dimethylpiperazin-1-yl]carbonyl]pyrrolidine dihydrochloride] |
| 100% | Cc1ccc2cccc(OCc3c(Cl)ccc(S(=O)(=O)N4CCC[C@H]4C(=O)N4CCN(C(=NC(C)C)NC(C)C)CC4)c3Cl)c2n1 [Example 27, 1-[[3-[(2-Methylquinolin-8-yl)oxymethyl]-2,4-dichlorophenyl]sulfonyl]-2-(S)-[[4-[(1-methylethylamino)(1-methylethylimino)methyl]piperazin-1-yl]-carbonyl]pyrrolidine dihydrochloride] |
